From patent publication US4683227A, “Antibiotic derivatives of 7β-[2-(thiazol-4-yl)acetamide]-3-chloro-3-cephem-4-carboxylic acids and compositions and method of use thereof” (Eli Lilly and Company, priority 1985, dated 1987)
In brackets after ≈: the same amount, converted by molar mass. Like-named read-outs stand apart in the source and are kept apart here.

Experiments:
[1] = Peroral bioavailability in mice (oral vs subcutaneous dosage); format: in vivo, mice (Cox Male Standard Mice, Lai:COX (Standard) BR); details: 20 mg/kg; for Oral Bioavailability % BA (AUC): area under plasma curves after oral vs subcutaneous dosage; for Oral Bioavailability % BA (URINE): urinary excretion after oral vs subcutaneous dosage
Source text: Cox Male Standard Mice, Lai:COX (Standard) BR were housed overnight in a wire-bottom cage with free access to water and liquid diet. The result was a gastro-intestinal tract free of solids, yet without the nutritional shock and coprophagy that often accompanies overnight starvation of rodents. After dosing, the mice were housed individually in ventilated wide-mouth jars containing a layer of buffer beneath an elevated wire screen floor. At intervals after dosing, mice were removed from the jars and heparinized blood, stomach, and small intestine were removed from the animals. The urinary bladder was removed and combined with the urine collected in the buffer in the bottom of the jars. Urine, washings from the stomach and small intestine, and plasma prepared from blood samples were assayed for antibiotic activity. The test procedure used is a modification of the test procedure described by W. E. Wright, et al., J. Antibiotics, 32:1155 (1979).
Dose solutions were prepared in saline at 2 mg/ml for subcutaneous or oral administration. In all cases the compounds were administered to the mice at 20 mg/kg on an equal weight basis.
The biological activity of the samples was determined by a conventional agar well procedure using Bacillus subtilis ATCC 6633 as the test organism.
Peroral bioavailability (BA) of the test compounds in mice can be determined either by comparison of the area under the plasma curves (AUC) after oral or subcutaneous dosage, or by comparison of the urinary excretion of the dose after oral and subcutaneous dosage. Calculations of BA by either method are made with the following formulae: [formula]

[2] = test system: Escherichia coli EC14; assay: Minimum inhibitory concentration, standard agar dilution method; format: cell-based
Source text: (§1) The method of this invention is useful in treating infections caused by a variety of microorganisms pathogenic to man and animals. […] The concentrations were obtained by the standard agar dilution method.

[3] = test system: Escherichia coli N10; assay: as above; format: cell-based
Source text: as §1

[4] = test system: Escherichia coli TEM; assay: as above; format: cell-based
Source text: as §1

[5] = test system: Haemophilus influenzae 76; assay: as above; format: cell-based
Source text: as §1

[6] = test system: Haemophilus influenzae C.L.; assay: as above; format: cell-based
Source text: as §1

[7] = test system: Klebsiella pneumoniae KAE; assay: as above; format: cell-based; details: for MIC: read-out: Minimum Inhibitory Concentration
Source text: as §1

[8] = test system: Klebsiella pneumoniae X26; assay: as above; format: cell-based
Source text: as §1

[9] = test system: Klebsiella pneumoniae X68; assay: as above; format: cell-based
Source text: as §1

[10] = test system: Staphylococcus aureus S13E; assay: as above; format: cell-based; details: for MIC: Staphylococcus aureus, S13E, read-out: Minimum Inhibitory Concentration; for Minimum Inhibitory Concentration: Staphylococcus aureus S13E, agar dilution
Source text: as §1

[11] = test system: Staphylococcus aureus V41; assay: as above; format: cell-based
Source text: as §1

[12] = test system: Staphylococcus aureus X1.1; assay: as above; format: cell-based
Source text: as §1

[13] = test system: Staphylococcus aureus X400; assay: as above; format: cell-based
Source text: as §1

[14] = test system: Staphylococcus epidermidis 222; assay: as above; format: cell-based
Source text: as §1

[15] = test system: Staphylococcus epidermidis Epil; assay: as above; format: cell-based
Source text: as §1

[16] = test system: Streptococcus pneumoniae PARK I; assay: as above; format: cell-based
Source text: as §1

[17] = test system: Streptococcus pyogenes C203; assay: as above; format: cell-based
Source text: as §1

[18] = test system: Streptococcus sp. group D 2041; assay: as above; format: cell-based; details: for MIC: read-out: Minimum Inhibitory Concentration
Source text: as §1

[19] = test system: Streptococcus sp. group D X66; assay: as above; format: cell-based; details: for MIC: read-out: Minimum Inhibitory Concentration
Source text: as §1

[20] = in vivo, po; cited from earlier work
[21] = Oral bioavailability in dogs; format: in vivo; details: female mongrel dogs
[22] = Klebsiella pneumoniae KAE, agar dilution
[23] = Staphylococcus aureus V41, agar dilution, read-out: Minimum Inhibitory Concentration
[24] = Staphylococcus aureus X400, agar dilution, read-out: Minimum Inhibitory Concentration
[25] = Streptococcus sp. group D 2041, agar dilution
[26] = Streptococcus sp. group D X66, agar dilution
[27] = Staphylococcus aureus V41, agar dilution
[28] = Staphylococcus aureus X400, agar dilution

Row | SMILES | Oral Bioavailability % BA (AUC) [1] [%] | Oral Bioavailability % BA (URINE) [1] [%] | MIC [2] [mg/L] | MIC [3] [mg/L] | MIC [4] [mg/L] | MIC [5] [mg/L] | MIC [6] [mg/L] | MIC [7, 22] [mg/L] | MIC [8] [mg/L] | MIC [9] [mg/L] | MIC [10] [mg/L] | MIC [11, 23] [mg/L] | MIC [12] [mg/L] | MIC [13, 24] [mg/L] | MIC [14] [mg/L] | MIC [15] [mg/L] | MIC [16] [mg/L] | MIC [17] [mg/L] | MIC [18, 25] [mg/L] | MIC [19, 26] [mg/L] | further results
1 | O=C(Cc1csc(Cl)n1)N[C@@H]1C(=O)N2C(C(=O)O)=C(Cl)CS[C@H]12 [Compound 3, 7β-[2-(2-Chlorothiazol-4-yl)acetamido]-3-chloro-3-cephem-4-carboxylic acid] | 66 | 56 | 16 (≈ 40.6 µM) | 32 (≈ 81.2 µM) | 16 (≈ 40.6 µM) | 2 (≈ 5.07 µM) | 2 (≈ 5.07 µM) | 128 (≈ 325 µM) | 4 (≈ 10.1 µM) | 8 (≈ 20.3 µM) | 64 (≈ 162 µM) | 64 (≈ 162 µM) | 1 (≈ 2.54 µM) | > 128 | 2 (≈ 5.07 µM) | 8 (≈ 20.3 µM) | 0.5 (≈ 1.27 µM) | 0.25 (≈ 0.634 µM) | 64 (≈ 162 µM) | 128 (≈ 325 µM) | –
2 | N[C@@H](C(=O)N[C@@H]1C(=O)N2C(C(=O)O)=C(Cl)CS[C@H]12)c1ccccc1 [cefaclor] | – | – | – | – | – | – | – | – | – | – | – | – | – | – | – | – | – | – | – | – | absorption from the gastrointestinal tract [20]: high absorption
3 | O=C(Cc1csc(-c2ccccc2)n1)N[C@@H]1C(=O)N2C(C(=O)O)=C(Cl)CS[C@H]12 [Compound 5, 7β-[2-(2-Phenylthiazol-4-yl)acetamido]-3-chloro-3-cephem-4-carboxylic acid] | – | – | > 128 | > 128 | > 128 | 0.5 (≈ 1.15 µM) | 4 (≈ 9.18 µM) | > 128 | 8 (≈ 18.4 µM) | > 128 | 16 (≈ 36.7 µM) | 32 (≈ 73.4 µM) | 0.25 (≈ 0.574 µM) | 64 (≈ 147 µM) | 0.5 (≈ 1.15 µM) | 4 (≈ 9.18 µM) | 0.125 (≈ 0.287 µM) | 0.06 (≈ 0.138 µM) | 16 (≈ 36.7 µM) | 64 (≈ 147 µM) | –
4 | N#Cc1ncn(CC(=O)N[C@@H]2C(=O)N3C(C(=O)O)=C(Cl)CS[C@H]23)n1 [Compound 7] | – | – | – | – | – | – | – | – | – | – | – | – | – | – | – | – | – | – | – | – | Minimum Inhibitory Concentration [2]: 32 µg/mL; Minimum Inhibitory Concentration [3]: 64 µg/mL; Minimum Inhibitory Concentration [4]: 64 µg/mL; Minimum Inhibitory Concentration [5]: 2 µg/mL; Minimum Inhibitory Concentration [6]: 2 µg/mL; Minimum Inhibitory Concentration [7, 22]: > 128 µg/mL; Minimum Inhibitory Concentration [8]: 32 µg/mL; Minimum Inhibitory Concentration [9]: 64 µg/mL; Minimum Inhibitory Concentration [10]: 128 µg/mL; Minimum Inhibitory Concentration [11, 27]: 128 µg/mL; Minimum Inhibitory Concentration [12]: 2 µg/mL; Minimum Inhibitory Concentration [13, 28]: > 128 µg/mL; Minimum Inhibitory Concentration [14]: 4 µg/mL; Minimum Inhibitory Concentration [15]: 8 µg/mL; Minimum Inhibitory Concentration [16]: 0.5 µg/mL; Minimum Inhibitory Concentration [17]: 0.25 µg/mL; Minimum Inhibitory Concentration [18, 25]: 64 µg/mL; Minimum Inhibitory Concentration [19, 26]: 128 µg/mL
5 | Nc1nc(CC(=O)N[C@@H]2C(=O)N3C(C(=O)O)=C(Cl)CS[C@H]23)ns1 [Compound 1] | – | – | – | – | – | – | – | – | – | – | – | – | – | – | – | – | – | – | – | – | Minimum Inhibitory Concentration [2]: 8 µg/mL; Minimum Inhibitory Concentration [3]: 32 µg/mL; Minimum Inhibitory Concentration [4]: 16 µg/mL; Minimum Inhibitory Concentration [5]: 4 µg/mL; Minimum Inhibitory Concentration [6]: 4 µg/mL; Minimum Inhibitory Concentration [7, 22]: > 128 µg/mL; Minimum Inhibitory Concentration [8]: 4 µg/mL; Minimum Inhibitory Concentration [9]: 8 µg/mL; Minimum Inhibitory Concentration [10]: 64 µg/mL; Minimum Inhibitory Concentration [11, 27]: 128 µg/mL; Minimum Inhibitory Concentration [12]: 4 µg/mL; Minimum Inhibitory Concentration [13, 28]: > 128 µg/mL; Minimum Inhibitory Concentration [14]: 4 µg/mL; Minimum Inhibitory Concentration [15]: 16 µg/mL; Minimum Inhibitory Concentration [16]: 2 µg/mL; Minimum Inhibitory Concentration [17]: 1 µg/mL; Minimum Inhibitory Concentration [18, 25]: 128 µg/mL; Minimum Inhibitory Concentration [19, 26]: > 128 µg/mL
6 | Nc1nc(CC(=O)N[C@@H]2C(=O)N3C(C(=O)O)=C(Cl)CS[C@H]23)cs1 [Compound 2, 7β-[2-(2-Aminothiazol-4-yl)acetamido]-3-chloro-3-cephem-4-carboxylic acid] | 62 | 64 | 1 (≈ 2.67 µM) | 4 (≈ 10.7 µM) | 2 (≈ 5.34 µM) | 0.5 (≈ 1.33 µM) | 0.5 (≈ 1.33 µM) | 16 (≈ 42.7 µM) | 0.25 (≈ 0.667 µM) | 0.5 (≈ 1.33 µM) | 32 (≈ 85.4 µM) | 32 (≈ 85.4 µM) | 1 (≈ 2.67 µM) | > 128 | 1 (≈ 2.67 µM) | 4 (≈ 10.7 µM) | 0.5 (≈ 1.33 µM) | 0.06 (≈ 0.16 µM) | 32 (≈ 85.4 µM) | > 128 | bioavailability ([21]; oral, calculated with the above-described formulae): 28%
7 | CC1=C(C(=O)O)N2C(=O)[C@@H](NC(=O)[C@H](N)C3=CCC=CC3)[C@H]2SC1 [cephradine] | – | – | – | – | – | – | – | – | – | – | – | – | – | – | – | – | – | – | – | – | absorption from the gastrointestinal tract [20]: high absorption
8 | CC1(C)S[C@@H]2[C@H](NC(=O)COc3ccccc3)C(=O)N2[C@H]1C(=O)O [Penicillin V] | – | – | – | – | – | – | – | – | – | – | – | – | – | – | – | – | – | – | – | – | bioavailability ([21]; dog, urine recovery with time following intravenous and oral administration, read-out: bioavailability (percent of dose recovered in the urine)): 21%; oral bioavailability (area under the curves) ([21]; serum antibacterial levels with time following intravenous and oral administration): 11%
9 | Cc1nc(CC(=O)N[C@@H]2C(=O)N3C(C(=O)O)=C(Cl)CS[C@H]23)cs1 [Compound 4, 7β-[2-(2-Methylthiazol-4-yl)acetamido]-3-chloro-3-cephem-4-carboxylic acid] | 57 | 66 | 16 (≈ 42.8 µM) | 32 (≈ 85.6 µM) | 16 (≈ 42.8 µM) | 1 (≈ 2.67 µM) | 2 (≈ 5.35 µM) | – | 2 (≈ 5.35 µM) | 8 (≈ 21.4 µM) | 128 (≈ 342 µM) | – | 1 (≈ 2.67 µM) | – | 2 (≈ 5.35 µM) | 8 (≈ 21.4 µM) | 1 (≈ 2.67 µM) | 0.25 (≈ 0.669 µM) | – | – | MIC ([7]; Klebsiella pneumoniae): > 128 mg/L; MIC ([11]; Staphylococcus aureus, V41, read-out: Minimum Inhibitory Concentration): 128 mg/L (≈ 342 µM); MIC ([13]; Staphylococcus aureus, X400, read-out: Minimum Inhibitory Concentration): > 128 mg/L; MIC ([18]; Streptococcus): 128 mg/L (≈ 342 µM); MIC ([19]; Streptococcus): > 128 mg/L
10 | O=C(Cn1cnnn1)N[C@@H]1C(=O)N2C(C(=O)O)=C(Cl)CS[C@H]12 [Compound 6] | – | – | – | – | – | – | – | – | – | – | – | – | – | – | – | – | – | – | – | – | Minimum Inhibitory Concentration [2]: 16 µg/mL; Minimum Inhibitory Concentration [3]: 32 µg/mL; Minimum Inhibitory Concentration [4]: 32 µg/mL; Minimum Inhibitory Concentration [5]: 8 µg/mL; Minimum Inhibitory Concentration [6]: 16 µg/mL; Minimum Inhibitory Concentration [7, 22]: > 128 µg/mL; Minimum Inhibitory Concentration [8]: 32 µg/mL; Minimum Inhibitory Concentration [9]: 32 µg/mL; Minimum Inhibitory Concentration [10]: 32 µg/mL; Minimum Inhibitory Concentration [11, 27]: 32 µg/mL; Minimum Inhibitory Concentration [12]: 2 µg/mL; Minimum Inhibitory Concentration [13, 28]: > 128 µg/mL; Minimum Inhibitory Concentration [14]: 4 µg/mL; Minimum Inhibitory Concentration [15]: 16 µg/mL; Minimum Inhibitory Concentration [16]: 0.5 µg/mL; Minimum Inhibitory Concentration [17]: 0.5 µg/mL; Minimum Inhibitory Concentration [18, 25]: 64 µg/mL; Minimum Inhibitory Concentration [19, 26]: 64 µg/mL
